From patent US20160015637A1, “ANTI-ITCHING POWDER” (Lilac Laboratory Co., Ltd., priority 2014, published 2016) come the findings set out here.

The assay in a line: itch prevention effect experiment (somesthetic testing, powder applied to the skin over the whole body). In kind it is in vivo, examinees (male: 2, female: 1). Particulars: for proportion of itch: itches without application set to 100, climbing/running 100 times, eight hours from test start; for itch removal / itch prevention effect bodily sensed: somesthetic testing, result in words. As for the experimental part: Purpose of Experiment The fine powder of the aluminum chloride hexahydrate and the cyclodextrin (referred to as the CD) were each used alone for application to the skin over the whole body. From the result, whether the itch prevention effect was able to be bodily sensed or not was determined through somesthetic testing.
Participated Examinees three (male: 2, female: 1)
Testing Method Fine powder compositions of Experiment 1 to Experiment 3 were applied to the skin over the whole body. The climbing of a low mountain (altitude: 300 to 400 m) of 2 to 20 km and running of 2 to 15 km were executed 100 times appropriately for all seasons and for two years with the respective samples. Whether the itch was clearly removed or not and the appearance of the itch was able to be prevented or not were measured setting eight hours from the test start as terminal time. During the period, the somesthetic testing was conducted for determination. The total count of itches developed without application of various kinds of fine powder agents to the skin over the whole body (the head, the face, the body, and the entire feet) was set to 100. The degree of the itch was indicated by a “proportion of itch.”

With `OC[C@H]1O[C@@H]2O[C@H]3[C@H](O)[C@@H](O)[C@@H](O[C@H]4[C@H](O)[C@@H](O)[C@@H](O[C@H]5[C@H](O)[C@@H](O)[C@@H](O[C@H]6[C@H](O)[C@@H](O)[C@@H](O[C@H]7[C@H](O)[C@@H](O)[C@@H](O[C@H]8[C@H](O)[C@@H](O)[C@@H](O[C@H]9[C@H](O)[C@@H](O)[C@@H](O[C@H]1[C@H](O)[C@H]2O)O[C@@H]9CO)O[C@@H]8CO)O[C@@H]7CO)O[C@@H]6CO)O[C@@H]5CO)O[C@@H]4CO)O[C@@H]3CO` [γ-CD], the proportion of itch amounted to 100% and the “itch removal / itch prevention effect bodily sensed” value was “the itch prevention effect was not able to be bodily sensed”.

Turning to `OC[C@H]1O[C@@H]2O[C@H]3[C@H](O)[C@@H](O)[C@@H](O[C@H]4[C@H](O)[C@@H](O)[C@@H](O[C@H]5[C@H](O)[C@@H](O)[C@@H](O[C@H]6[C@H](O)[C@@H](O)[C@@H](O[C@H]7[C@H](O)[C@@H](O)[C@@H](O[C@H]1[C@H](O)[C@H]2O)O[C@@H]7CO)O[C@@H]6CO)O[C@@H]5CO)O[C@@H]4CO)O[C@@H]3CO` [α-CD], the proportion of itch is on record as 100% and the “itch removal / itch prevention effect bodily sensed” value is “The itch was not removed”.

For the molecule `OC[C@H]1O[C@@H]2O[C@H]3[C@H](O)[C@@H](O)[C@@H](O[C@H]4[C@H](O)[C@@H](O)[C@@H](O[C@H]5[C@H](O)[C@@H](O)[C@@H](O[C@H]6[C@H](O)[C@@H](O)[C@@H](O[C@H]7[C@H](O)[C@@H](O)[C@@H](O[C@H]8[C@H](O)[C@@H](O)[C@@H](O[C@H]1[C@H](O)[C@H]2O)O[C@@H]8CO)O[C@@H]7CO)O[C@@H]6CO)O[C@@H]5CO)O[C@@H]4CO)O[C@@H]3CO` [β-CD], the proportion of itch is on record as 100% and the “itch removal / itch prevention effect bodily sensed” value was “the itch prevention effect was not able to be bodily sensed”.
